Measured values published in the NIST ThermoML archive (doi:10.1021/je0498356).
Numbers after ± are expanded uncertainties.

Details: Liquid

Row | Structure (SMILES) | Critical pressure [kPa] | Critical temperature [K]
1 | O=C(O)CCCCCC(=O)O [1,7-heptanedioic acid] | 3280 ± 130 | 842 ± 13
2 | O=C(O)CCCC(=O)O [1,5-pentanedioic acid] | 4270 ± 200 | 840 ± 13
3 | O=C(O)CCCCCCCCCCCCC(=O)O [1,12-dodecanedicarboxylic acid] | 1900 ± 80 | 862 ± 13
4 | O=C(O)CCCCCCCC(=O)O [1,9-nonanedioic acid] | 2720 ± 110 | 844 ± 13
5 | O=C(O)CCC(=O)O [butanedioic acid] | 6590 ± 300 | 851 ± 20
6 | O=C(O)CCCCCCC(=O)O [1,8-octanedioic acid] | 2970 ± 120 | 843 ± 13
7 | O=C(O)CCCCCCCCC(=O)O [1,10-decanedioic acid] | 2500 ± 100 | 845 ± 13
8 | O=C(O)CCCCC(=O)O [1,6-hexanedioic acid] | 3850 ± 150 | 841 ± 13
9 | O=C(O)CCCCCCCCCCC(=O)O [1,12-dodecanedioic acid] | 2150 ± 90 | 859 ± 13
